These are literature values, as cited in publication PMC4559881 (Molecular Neurodegeneration, 2015).

The conditions of data set [1]: cited from earlier work.
In the next data set the test system is brain Aβ. Set-up: method as in PMID 22090477. Conditions: PDAPP mice, doses ≥ 30 mg/kg p.o.; cited from earlier work.
The test system of data set [2] is CSF Aβ. Set-up: method as in PMID 22090477. The note with it: dogs, oral dose of 5 mg/kg; cited from earlier work.
Data set [3] relates to CSF Aβ. Set-up: method as in PMID 22090477. Conditions: healthy volunteers, cited from earlier work.
The conditions of data set [4]: human, in vivo; cited from earlier work.
The subject of a further data set is deposited Aβ. Set-up: method as in PMID 25164658. The note with it: APP London mice, 4 months of dosing, 30 mg/kg; cited from earlier work.

Where two headings read alike, the source gives them in different places.

Turning to `CC1(C#Cc2cnc3c(c2)[C@]2(COC(N)=N2)c2cc(-c4cccnc4F)ccc2O3)COC1` [AMG-8718], the “toxicity finding in rats” value in data set [1] (high doses) is “retinal toxicity”.

As to `C[C@@]1(c2cc(-c3cncnc3)c(F)cc2F)CCSC(N)=N1` [LY2811376], the “toxicity finding in rats” value in data set [1] is “neuronal lipofuscinosis and degeneration”. Further, the “reduction of brain Aβ” value in the data set with brain Aβ is reported as greater than 60%. Besides, the “reduction of CSF Aβ” value with CSF Aβ [2] is “approximately 70%”. Also, the results for the “change of CSF Aβ” value in the data set with CSF Aβ [3] (oral dose 30 mg) and with CSF Aβ [3] (oral dose 90 mg) were -20% and -54%, respectively.

For `NC1=N[C@@]2(c3cc(NC(=O)c4ccc(F)cn4)ccc3F)COC[C@H]2CS1` [LY2886721], the “liver finding in AD patients” value in data set [4] was “elevation of liver enzymes”.

For `C[C@]1(c2cc(NC(=O)c3ccc(C#N)cn3)ccc2F)N=C(N)OCC1(F)F` [RO5508887], in the data set with deposited Aβ, the “reduction of total deposited Aβ40” value is given as 28% and the “reduction of total deposited Aβ42” value is on record as 45%.
